Measurements: patent US20070207993A1, “Molybdenum carbonyl complexes for treating rheumatoid arthritis and other inflammatory diseases” (Alfama - Investigacao e Desenvolvimetno De Productos …, priority 2005, published 2007)

How the values were obtained:
[1] = Solubility in water and RPMI; format: physicochemical
[2] = CO release in the presence of reactive oxygen species (TBHP, H2O2, KO2); format: physicochemical; details: 25° C., dark; for Equivalents of CO2 released, H2O2 / Equivalents of CO released, H2O2: H2O2 100:1, water; for Equivalents of CO2 released, KO2 / Equivalents of CO released, KO2: KO2 100:1, THF; for Equivalents of CO2 released, TBHP / Equivalents of CO released, TBHP: TBHP 100:1, water
Experimental: The studies were done using the same method and apparatus described in Example 7 with the following modifications: RPMI/FBS was replaced by double distilled water in the experiments with H2O2 and TBHP and by tetrahydrofuran (THF) for the experiments with KO2; the temperature was kept at 25° C. The concentration of Compound I.1 was approximately 1 mM and the ration of concentrations of H2O2, TBHP and KO2 relative to Compound I.1 was 100:1. The amount of CO2 generated was also measured in the same experiment to ascertain the concurrent oxidation of coordinated CO. TBHP was added from a 70% aqueous solution and H2O2 from a 30% aqueous solution.

Balb/c mice = experiment: Mortality in mice after injection of a lethal dose of LPS; format: in vivo; details: LPS 10 mg/kg i.p., four i.p. injections of 20 mg/kg at -60, -30 min, +4 h, +9 h
Experimental: Seventeen eight week old Balb/c mice received one intraperitoneal injection of LPS at a dose of 10 mg/kg at time zero. One group of eight mice received four intraperitoneal injections of Compound I.1, each at a dose of 20 mg/kg, at 60 and 30 minutes before LPS and at 4 hours and 9 hours after LPS. A second group of 9 mice received four intraperitoneal injections of vehicle (carboxymethylcellulose 0.5%, Tween80 0.5%) at 60 and 30 minutes before LPS and at 4 hrs and 9 hrs after LPS. Survival of the mice was monitored for 168 hours.

## O=[C][Mo]([Br])([C]=O)([C]=O)([C]=O)[C]=O [Compound I.1]
[1]
  solubility in water and RPMI: low solubility
[2]; 1 h
  Equivalents of CO2 released, H2O2: 0.41 equivalents
  Equivalents of CO released, H2O2: 1.08 equivalents
  Equivalents of CO2 released, KO2: 0.00 equivalents
  Equivalents of CO released, KO2: 1.94 equivalents
  Equivalents of CO2 released, TBHP: 0.51 equivalents
  Equivalents of CO released, TBHP: 2.51 equivalents
[2]; 3 h
  Equivalents of CO2 released, H2O2: 0.80 equivalents
  Equivalents of CO released, H2O2: 1.49 equivalents
  Equivalents of CO2 released, KO2: 0.00 equivalents
  Equivalents of CO released, KO2: 3.22 equivalents
  Equivalents of CO2 released, TBHP: 0.95 equivalents
  Equivalents of CO released, TBHP: 3.77 equivalents
[2]; 5 h
  Equivalents of CO2 released, H2O2: 0.90 equivalents
  Equivalents of CO released, H2O2: 1.46 equivalents
  Equivalents of CO2 released, KO2: 0.00 equivalents
  Equivalents of CO released, KO2: 2.54 equivalents
  Equivalents of CO2 released, TBHP: 1.07 equivalents
  Equivalents of CO released, TBHP: 3.94 equivalents
[2]; 24 h
  Equivalents of CO2 released, H2O2: 0.89 equivalents
  Equivalents of CO released, H2O2: 1.43 equivalents
  Equivalents of CO2 released, KO2: 0.00 equivalents
  Equivalents of CO released, KO2: 2.29 equivalents
  Equivalents of CO2 released, TBHP: 1.13 equivalents
  Equivalents of CO released, TBHP: 3.93 equivalents
Balb/c mice
  mice alive at 168 hours following LPS injection: three of the eight
